Reference: the NIST ThermoML archive (doi:10.1016/j.jct.2009.12.002)
“And” between values parts separate entries of the source, which are not always exact repeats. Equal values may be shown once.

Settings: Liquid; for mass density: 101.33 kPa, Pycnometric method; for speed of sound: Pulse-echo method

CC(C)CCCCCCCOC(=O)c1ccccc1C(=O)OCCCCCCCC(C)C
Settings | mass density
273.84 K | 980.22 kg/m3
274.06 K | 980.07 kg/m3
274.07 K | 980.08 kg/m3
274.35 K | 979.86 kg/m3
282.95 K | 973.75 kg/m3
298.25 K | 962.88 kg/m3
298.28 K | 962.83 kg/m3
305.26 K | 957.83 kg/m3
313.27 K | 952.21 kg/m3 and 952.15 kg/m3
333.28 K | 937.93 kg/m3
353.29 K | 923.76 kg/m3
373.29 K | 909.62 kg/m3
393.31 K | 895.47 kg/m3
413.33 K | 881.29 kg/m3

Settings | speed of sound [m/s]
293.06 K, 1185 kPa | 1436.6
298.08 K, 1100 kPa | 1419.9
298.08 K, 5400 kPa | 1439
298.08 K, 10180 kPa | 1459.7
298.08 K, 16980 kPa | 1488
298.08 K, 25560 kPa | 1522
298.08 K, 32760 kPa | 1549.3
298.08 K, 40150 kPa | 1576.5
298.08 K, 47800 kPa | 1602.9
298.08 K, 55510 kPa | 1629.7
298.08 K, 62350 kPa | 1652.4
313.18 K, 1050 kPa | 1367.8
313.18 K, 1110 kPa | 1367.9
313.18 K, 15410 kPa | 1432.5
313.18 K, 29860 kPa | 1491.8
313.18 K, 44860 kPa | 1548.5
313.18 K, 60370 kPa | 1602.9
313.18 K, 75510 kPa | 1652.4
313.18 K, 89970 kPa | 1697
313.18 K, 105660 kPa | 1742.8
313.18 K, 119950 kPa | 1782.4
333.24 K, 1100 kPa | 1304.1
333.24 K, 1130 kPa | 1304.1
333.24 K, 14910 kPa | 1370.1
333.24 K, 29760 kPa | 1434.3
333.24 K, 45000 kPa | 1494.4
333.24 K, 60580 kPa | 1551.1
333.24 K, 75550 kPa | 1601.7
333.24 K, 90480 kPa | 1649.2
333.24 K, 105430 kPa | 1694
333.24 K, 120280 kPa | 1736.3
333.24 K, 139660 kPa | 1788.5
353.18 K, 1010 kPa | 1241.9
353.18 K, 1280 kPa | 1243.1
353.18 K, 10060 kPa | 1288.5
353.18 K, 19830 kPa | 1335.3
353.18 K, 29890 kPa | 1380.3
353.18 K, 40170 kPa | 1423.1
353.18 K, 50230 kPa | 1462.7
353.18 K, 60350 kPa | 1500.4
353.18 K, 70310 kPa | 1535.6
353.18 K, 80170 kPa | 1569
353.18 K, 90020 kPa | 1601
353.18 K, 104640 kPa | 1646
353.18 K, 122120 kPa | 1697.1
353.18 K, 139450 kPa | 1745
373.1 K, 460 kPa | 1179.1
373.1 K, 1150 kPa | 1183.1
373.1 K, 1350 kPa | 1184.4
373.1 K, 10370 kPa | 1233.7
373.1 K, 20030 kPa | 1282.4
373.1 K, 29930 kPa | 1328.6
373.1 K, 40300 kPa | 1373.8
373.1 K, 50050 kPa | 1413.5
373.1 K, 60040 kPa | 1452
373.1 K, 70060 kPa | 1488.7
373.1 K, 80050 kPa | 1523.7
373.1 K, 90060 kPa | 1557.2
373.1 K, 100440 kPa | 1590.2
373.1 K, 110260 kPa | 1620.7
373.1 K, 120180 kPa | 1649.7
373.1 K, 130570 kPa | 1679.6
373.1 K, 140300 kPa | 1707
393.54 K, 1240 kPa | 1125.2
393.54 K, 1280 kPa | 1125.4
393.54 K, 14940 kPa | 1203.3
393.54 K, 29730 kPa | 1277.1
393.54 K, 44510 kPa | 1343.3
393.54 K, 59690 kPa | 1404.8
393.54 K, 75010 kPa | 1462
393.54 K, 104930 kPa | 1563
393.54 K, 122450 kPa | 1616.7
393.54 K, 139770 kPa | 1666.6
413.41 K, 1110 kPa | 1069.6
413.41 K, 1130 kPa | 1069.8
413.41 K, 14800 kPa | 1152.3
413.41 K, 29640 kPa | 1229.8
413.41 K, 45070 kPa | 1301.7
413.41 K, 60270 kPa | 1365.4
413.41 K, 75540 kPa | 1423.9
413.41 K, 90150 kPa | 1476
413.41 K, 105150 kPa | 1526
413.41 K, 119720 kPa | 1571.9
413.41 K, 139510 kPa | 1630.3
